Results as given in the supplement of paper PMC10627819.

How the values were obtained:
[1] = test system: B. subtilis 168; assay: fitness (endpoint OD595 vs no drug) (fraction); higher = more growth
Procedure, shortened: (§1)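 Cultures at OD595 0.01 were dispensed into 384-well plates in TSB, LB Lennox or CY and incubated at 37 °C. Every 30 min for 14 h, OD595 was read and corrected by the first reading. Fitness is the optical density at entry into stationary phase relative to the robust mean of no-drug control wells, capped at 1.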

[2] = test system: S. pneumoniae D39V; assay: as above
Procedure, shortened: as §1

[3] = test system: S. aureus Newman; assay: as above
Procedure, shortened: as §1

[4] = test system: B. subtilis 168; assay: Bliss interaction score (quartile over a dose matrix) (fitness difference); higher = more antagonism (negative = synergy)
Procedure, shortened: (§2)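 Each plate was normalised to the robust mean of its own no-drug wells, using OD595 at entry into stationary phase, with values capped at 1. This normalised growth is the fitness value. The Bliss score is the difference between observed and product-expected fitness, with single-drug fitness inferred from the combination data and quartiles taken over technical, biological and donor/recipient replicates.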

[5] = test system: S. pneumoniae D39V; assay: as above
Procedure, shortened: as §2

[6] = test system: S. aureus DSM 20231; assay: as above
Procedure, shortened: as §2

[7] = test system: S. aureus Newman; assay: as above
Procedure, shortened: as §2
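Wherever Bliss interaction score (quartile over a dose matrix) is given: first quartile when negative (synergy) and third quartile when positive (antagonism).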

CCCCCCCCCC(=O)N[C@@H](Cc1c[nH]c2ccccc12)C(=O)N[C@H](CC(N)=O)C(=O)N[C@@H](CC(=O)O)C(=O)N[C@@H]1C(=O)NCC(=O)N[C@@H](CCCN)C(=O)N[C@@H](CC(=O)O)C(=O)N[C@H](C)C(=O)N[C@@H](CC(=O)O)C(=O)NCC(=O)N[C@H](CO)C(=O)N[C@@H]([C@H](C)CC(=O)O)C(=O)N[C@@H](CC(=O)c2ccccc2N)C(=O)O[C@@H]1C [Daptomycin] + CC(C1CCC(C(O1)OC2C(CC(C(C2O)OC3C(C(C(CO3)(C)O)NC)O)N)N)N)NC [Gentamicin]
main component drawn
Conditions | fitness
[1], first compound 0.125 µg/mL, partner 0.0625 µg/mL | 0.905
[1], first compound 0.125 µg/mL, partner 0.25 µg/mL | 0.0486
[1], first compound 0.25 µg/mL, partner 0.0625 µg/mL | 0.906
[2], first compound 1 µg/mL, partner 2 µg/mL | 0.952
[2], first compound 1 µg/mL, partner 4 µg/mL | 0.917
[2], first compound 1 µg/mL, partner 8 µg/mL | 0.868
[2], first compound 2 µg/mL, partner 2 µg/mL | 0.956
[2], first compound 2 µg/mL, partner 4 µg/mL | 0.905
[2], first compound 2 µg/mL, partner 8 µg/mL | 0.877
[2], first compound 4 µg/mL, partner 8 µg/mL | 0.724
[3], first compound 0.125 µg/mL, partner 0.5 µg/mL | 0.926
[3], first compound 0.125 µg/mL, partner 1 µg/mL | ≥ 1
[3], first compound 0.125 µg/mL, partner 2 µg/mL | ≥ 1
[3], first compound 0.25 µg/mL, partner 0.5 µg/mL | 0.947
[3], first compound 0.25 µg/mL, partner 1 µg/mL | ≥ 1
[3], first compound 0.25 µg/mL, partner 2 µg/mL | ≥ 1
[3], first compound 0.5 µg/mL, partner 0.5 µg/mL | 0.949
[3], first compound 0.5 µg/mL, partner 1 µg/mL | 0.993
[3], first compound 0.5 µg/mL, partner 2 µg/mL | ≥ 1

fitness, one replicate, main component drawn
Conditions | partner 0.0625 µg/mL | partner 0.125 µg/mL | partner 0.25 µg/mL | partner 0.375 µg/mL | partner 0.75 µg/mL | partner 1.5 µg/mL
[1], first compound 1 µg/mL | 0.718 | 0.499 | 0.0176 | – | – | –
[3], first compound 0.125 µg/mL | – | – | – | ≥ 1 | ≥ 1 | 0.656
[3], first compound 0.25 µg/mL | – | – | – | ≥ 1 | ≥ 1 | 0.153
[3], first compound 0.5 µg/mL | – | – | – | ≥ 1 | ≥ 1 | 0.237

main component drawn
Conditions | Bliss interaction score
[4] | 0.136
[5] | 0.0772
[6] | 0.0663
[7] | -0.0263

CCN(CC)CCOC(=O)c1ccc(N)cc1 [Procaine] + CN(C)c1cc(NC(=O)CNC(C)(C)C)c(O)c2c1C[C@H]1C[C@H]3[C@H](N(C)C)C(O)=C(C(N)=O)C(=O)[C@@]3(O)C(O)=C1C2=O [Tigecycline]
fitness
Conditions | first compound 85.5 µg/mL | first compound 171 µg/mL | first compound 342 µg/mL
[1], partner 0.039 µg/mL | 0.94 | 0.978 | 0.929
[1], partner 0.078 µg/mL | 0.916 | 0.96 | 0.858
[1], partner 0.156 µg/mL | 0.895 | 0.909 | 0.856
[2], partner 0.65 µg/mL | 0.974 | 0.993 | 1
[2], partner 1.3 µg/mL | 0.946 | 0.952 | 0.957
[2], partner 2.6 µg/mL | 0.927 | 0.935 | 0.932
[3], partner 0.039 µg/mL | 0.955 | 0.965 | 0.928
[3], partner 0.078 µg/mL | ≥ 1 | 0.986 | 0.996
[3], partner 0.156 µg/mL | ≥ 1 | ≥ 1 | 0.991

fitness, [1], one replicate
Conditions | first compound 85.5 µg/mL | first compound 171 µg/mL | first compound 342 µg/mL
partner 0.125 µg/mL | ≥ 1 | 0.985 | 0.974
partner 0.25 µg/mL | 0.891 | 0.917 | 0.917
partner 0.5 µg/mL | 0.913 | 0.916 | 0.905

Conditions | Bliss interaction score
[4] | -0.0701
[5] | 0.0455
[6] | 0.0953
[7] | 0.0571

CCN(CC)CCOC(=O)c1ccc(N)cc1 [Procaine] + CN[C@@H]1[C@H](O[C@H]2[C@H](O[C@H]3[C@H](O)[C@@H](O)[C@H](N=C(N)N)[C@@H](O)[C@@H]3N=C(N)N)O[C@@H](C)[C@]2(O)C=O)O[C@@H](CO)[C@H](O)[C@H]1O [Streptomycin]
fitness
Conditions | first compound 85.5 µg/mL | first compound 171 µg/mL | first compound 342 µg/mL
[1], partner 2 µg/mL | 0.914 | 0.921 | 0.94
[1], partner 8 µg/mL | 0.0423 | 0.0261 | 0.0278
[2], partner 2 µg/mL | 0.985 | 0.988 | 0.933
[2], partner 4 µg/mL | 0.984 | 0.984 | 0.945
[2], partner 8 µg/mL | 0.952 | 0.92 | 0.9
[3], partner 1 µg/mL | 0.994 | 0.963 | 0.957
[3], partner 2 µg/mL | 0.983 | 0.96 | 0.985

[2], partner 16 µg/mL, one replicate
Conditions | fitness
first compound 85.5 µg/mL | 0.815
first compound 171 µg/mL | 0.759
first compound 342 µg/mL | 0.75

Conditions | Bliss interaction score
[4] | -0.117
[5] | 0.0529
[6] | 0.0982
[7] | 0.0657

CO/N=C(\C(=O)N[C@@H]1C(=O)N2C(C(=O)[O-])=C(C[N+]3(C)CCCC3)CS[C@H]12)c1csc(N)n1 [Cefepime] + C/C(=C\C(=O)OCCCCCCCCC(=O)O)C[C@@H]1OC[C@H](C[C@@H]2O[C@H]2[C@@H](C)[C@H](C)O)[C@@H](O)[C@H]1O [Pseudomonic acid]
fitness, [2]
Conditions | first compound 0.007 µg/mL | first compound 0.0078 µg/mL | first compound 0.014 µg/mL | first compound 0.0155 µg/mL | first compound 0.028 µg/mL | first compound 0.031 µg/mL
partner 0.03 µg/mL | ≥ 1 | 0.93 | ≥ 1 | 0.945 | ≥ 1 | 0.747
partner 0.06 µg/mL | 0.924 | 0.814 | 0.976 | 0.796 | 0.968 | 0.631
partner 0.12 µg/mL | 0.583 | 0.578 | 0.631 | 0.56 | 0.568 | 0.382

fitness, [3], one replicate
Conditions | first compound 0.125 µg/mL | first compound 0.25 µg/mL | first compound 0.5 µg/mL
partner 0.0313 µg/mL | 0.0486 | 0.044 | 0.0558
partner 0.0625 µg/mL | 0.0381 | 0.0306 | 0.0329
partner 0.125 µg/mL | 0.0329 | 0.0557 | 0.0514

Conditions | Bliss interaction score
[4] | 0.0521
[5] | 0.0923
[6] | 0.0141
[7] | 0.0093
